Results from patent publication US20240150342A1, “ESTROGEN-RELATED RECEPTOR ALPHA MODULATORS” (LEAD PHARMA HOLDING B.V., priority 2019, published 2024).

Columns and labels:
[1] = target: T1, ERRα ligand binding domain (ERRα-LBD) (Homo sapiens, UniProt P11474); assay: ERRα AlphaScreen Assay; assay type: biochemical; conditions: disruption of binding of ERRα-LBD protein to biotin-PGC1α-3 co-activator peptide; read-out: mean pIC50 (converted)
T1 construct: made in house; host or cells: E. coli
T1 sequence (P11474 193-421 limits assumed): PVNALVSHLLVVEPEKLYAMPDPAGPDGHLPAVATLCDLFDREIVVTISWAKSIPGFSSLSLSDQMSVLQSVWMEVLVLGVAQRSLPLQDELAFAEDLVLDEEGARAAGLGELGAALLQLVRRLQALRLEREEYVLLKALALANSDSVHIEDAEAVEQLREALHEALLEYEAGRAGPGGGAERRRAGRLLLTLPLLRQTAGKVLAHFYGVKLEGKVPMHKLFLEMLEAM
In short: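 E. coli-expressed 6His-SUMO-ERRα-LBD (0.81 nM) incubated with compound and donor/acceptor beads 1 h, then 2 h with 15 nM biotin-PGC1α-3 peptide (aa 202–220); room temperature, Tris pH 7.5 buffer with TCEP, 1% DMSO, triplicates. Loss of co-activator binding read by AlphaScreen; four-parameter dose-response fit.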

B16F10 melanoma = assay: B16F10 Melanoma Syngeneic Mouse Model; assay type: in vivo; conditions: 30 mpk p.o., q.d., B16F10 allograft in C57BL/6 mice
Experimental: Example inhibitor 80 was tested for its ability to inhibit tumor growth in a B16F10 melanoma syngeneic mouse model. Cell line and tumor model: B16F10 melanoma cell line derived allograft model in C57BL/6 mice.
Mouse B16F10 melanoma cells were sourced from American Type Culture Collection (ATCC), USA. Cells were grown in DMEM (Invitrogen, Catalogue No. 31600-034) supplemented with 10% FBS (Invitrogen, Catalogue No. 10438-026), and 1% penicillin streptomycin (Thermo Fisher Scientific, Catalogue No. 15140-122). To establish allografts, the cells were harvested by trypsinization when they reach around 70 to 80% confluence and 0.1 million B16F10 cells were suspended in 50 μl of serum free medium and mixed at 1:1 ratio with matrigel before implanting subcutaneously into the dorsal right flank of mice using a 1 mL BD syringe attached to a 24-gauge needle.
B16F10 tumor grafts were measured after 5 days of cell inoculation once they became palpable. […]
Tumor dimensions—length (I) and breadth (b)—were measured by caliper on the day of animal randomization based on tumor volume (Day 1) and thrice weekly thereafter until study termination. Tumor volumes were calculated using the formula b^2*I*0.52 where I=length, b=breadth (Dusan Djokovic et al., BMC Cancer, 2010, 10:641). Tumor growth inhibition was calculated after normalizing the tumor volume on a given day to that on Day 1. […]

full length ERRα = target: T2, full length ERRα (Homo sapiens, UniProt P11474); assay: Full Length ERRα Reporter Gene Assay; assay type: cell-based; conditions: SK-BR-3 cells, ERRα-RE luciferase reporter, overnight incubation; read-out: mean pIC50 (converted)
T2 construct: an over-expression construct coding full length ERRα; expressed in transfected cells; host or cells: SK-BR-3 cells, transient co-transfection of pLP2124 (pcDNA3.1/Hygro(+) background) and reporter pLP2175
T2 sequence (P11474 1-423): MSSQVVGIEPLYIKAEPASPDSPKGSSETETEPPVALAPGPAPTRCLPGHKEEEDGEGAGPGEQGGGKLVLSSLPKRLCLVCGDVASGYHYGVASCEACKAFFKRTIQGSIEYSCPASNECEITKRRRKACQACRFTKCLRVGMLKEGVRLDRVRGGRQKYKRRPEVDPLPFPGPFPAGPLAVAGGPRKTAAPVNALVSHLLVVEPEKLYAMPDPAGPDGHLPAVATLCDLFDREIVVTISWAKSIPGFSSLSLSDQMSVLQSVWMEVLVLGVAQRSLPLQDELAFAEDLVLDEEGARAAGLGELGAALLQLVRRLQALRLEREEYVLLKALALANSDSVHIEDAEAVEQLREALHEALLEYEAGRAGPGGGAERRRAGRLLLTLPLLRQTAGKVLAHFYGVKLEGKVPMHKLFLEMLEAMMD
Description: A method was established to quantitatively screen the potency of compounds with inverse agonistic activity on the nuclear receptor ERRα of the human species. The assay allows intra-cellular screening of ERRα inverse agonists in SK-BR-3 cells using an over-expression construct coding full length ERRα and a reporter construct containing an ERRα Response Element (RE) and a luciferase gene for read out. The activity is expressed in logIC50 values and can be used to determine SAR of compound families or to de-select compounds.
In this assay, reporter cells are obtained by transient co-transfection of two constructs in SK-BR-3 cells using standard transfection techniques. The first construct contains a response element of the nuclear receptor ERRα (Plasmid pLP2175, Reporter construct ERRα-RE/luc2P, cloned variant of ERRα_v2_synthRE, Switchgear Genomics, Catalog Number S900089). This sequence drives the transcription of the luciferase reporter gene in response to binding of an ERRα protein encoded by the second construct (Plasmid pLP2124: full length ERRα expression construct using pcDNA3.1/Hygro(+) as background, Invitrogen Catalog Number V87020).
The day after transfection, cells were plated into 96 well plates, the test compound was added and the plates were incubated overnight. Subsequently, the firefly luciferase activity was quantified using luciferase detection reagent and luminescence readout.
Transfection is performed on pre-seeded SK-BR-3 cells in a T175 flask. One transfected T175 flask is sufficient for seeding 3 to 4 MW96 plates the next day, depending on the confluency of the transfected cells.
Two different media are used in this protocol for cell treatment: 1) Culture medium, i.e. McCoy's 5a with phenol red (BioWhittaker Supplier Number 12-688F), 10% FBS and 1× Penstrep.; and, 2) Assay medium, i.e. McCoy's 5a Medium phenol red free (HyClone Product Code SH30270.01) with 2% Charcoal Stripped FBS and 1× Penstrep. Compound dilutions are prepared in assay medium.
Cells are seeded at least 2 days in advance to allow the cells to adhere well to flask before transfection. Cells should be 50-80% confluent at the day of transfection.
SKBR3 cells were transfected with the transcriptional reporter construct pLP2175 and the ERRα expression construct pLP2124 (as described above).
68 μL of Lipofectamine LTX transfection reagent (Invitrogen Catalog Number 15338-100) was added dropwise to 8.9 ml Opti-MEM I Reduced Serum Medium (Gibco Catalog Number 51985-026) and incubated at room temperature for 5 to 20 minutes. 8.9 ml of this reagent mixture was added to 22 μg pLP2175+22 μg pLP2124 (ratio 1:1 and total volume 10 ml), and incubated at room temperature for 25 minutes.
10 minutes before adding the transfection mix to SKBR3 cells in a T175 flask, the culture medium was refreshed with 20 mL culture medium. Subsequently, the 10 mL DNA-Opti-MEM-Lipofectamine mixture was gently added to the cells, followed by overnight (16-24 hours) incubation at 37° C. and 5% CO2.
To harvest SKBR3 cells from a T175 flask, first the medium was removed. Subsequently, cells were washed with Phosphate Buffered Saline (PBS) (Lonza), after which the PBS was removed. To dissociate the cells, 2 ml of TrypLE Express (I nvitrogen) was added to the flask, followed by incubation at 37° C. for 5 minutes. The flask was tapped until cells were detached from the bottom. Cells were collected in 8 mL of culture medium (McCoy's 5a, 10% FBS, penstrep), to achieve a single cell suspension. After cell count, cells were spun down for 5 minutes at 300 g. Next cell pellets were re-suspended to 25000 cells/80 μl assay medium (McCoy's 5a phenol red free, 2% charcoal stripped FBS, penstrep).
For compound screening, the cells were harvested (as described above). 80 μL of cell suspension (25,000 cells) was plated per well into a white, flat bottom, tissue culture treated, 96 well screening plates (Greiner). […]

| IC50 [1] [µM] | IC50 (full length ERRα) [µM] | SMILES | Tumor Volume (mm^3) Day 13 (B16F10 melanoma) [mm^3] | Tumor Growth Inhibition (%) (B16F10 melanoma; Day 13) |
| --- | --- | --- | --- | --- |
| ≤ 0.01 |  | COc1cc(C2CC(=O)Nc3n[nH]cc32)ccc1Oc1cc(C(F)(F)F)cc(C(F)(F)F)c1 (single isomer, unassigned; (-)) [Example 80, (−)-4-{4-[3,5-bis(trifluoromethyl)phenoxy]-3-methoxyphenyl}-2H,4H,5H,6H,7H-pyrazolo[3,4-b]pyridin-6-one] | 684 ± 82 | 64 |
| 0.01 to 0.1 | ≤ 0.316 | COc1cc(C2CC(=O)Nc3n[nH]cc32)ccc1Oc1ccccc1C(C)(C)C (stereo not drawn) [Example 10, 4-[4-(2-tert-butylphenoxy)-3-methoxyphenyl]-2H,4H,5H,6H,7H-pyrazolo[3,4-b]pyridin-6-one] |  |  |
| ≤ 0.01 | ≤ 0.316 | COc1cc(Oc2ccc(C3CC(=O)Nc4n[nH]cc43)cc2OC)cc(C(F)(F)F)c1 (stereo not drawn) [Example 38, 4-{3-methoxy-4-[3-methoxy-5-(trifluoromethyl)phenoxy]phenyl}-2H,4H,5H,6H,7H-pyrazolo[3,4-b]pyridin-6-one] |  |  |
| ≤ 0.01 | ≤ 0.316 | COc1cc(-c2cc(=O)[nH]c3n[nH]cc23)ccc1Oc1ccc(Br)cc1C(C)(C)C [Example 70, 4-[4-(4-bromo-2-tert-butylphenoxy)-3-methoxyphenyl]-2H,6H,7H-pyrazolo[3,4-b]pyridin-6-one] |  |  |
